Data as given in patent publication US20220017572A1, “GEMINOID LIPOPEPTIDE COMPOUNDS AND THEIR USES” (Erasmus University Medical Center Rotterdam, priority 2016, published 2022).
Non-standard residues stand in square brackets, D forms with d. Residues, ends and D or L forms follow the SMILES beside them. C16 = C16 alkyl chain at peptide end (geminoid)

Columns and labels:
[1] = test system: DENV2 protease replicon; test: DENV2 protease replicon assay; format: cell-based; settings: lowest concentration with observed activity in replicon assay
[2] = target: T1, DENV2 protease (Dengue virus type 2, UniProt P14340); test: DENV2 protease biochemical assay; settings: for inhibition at 50 µM / % Inhibition at 50 μM (2): 50 μM inhibitor
T1 construct: The active site of the dengue protease is in the N-terminal part of NS3
T1 sequence (P14340 1476-1653): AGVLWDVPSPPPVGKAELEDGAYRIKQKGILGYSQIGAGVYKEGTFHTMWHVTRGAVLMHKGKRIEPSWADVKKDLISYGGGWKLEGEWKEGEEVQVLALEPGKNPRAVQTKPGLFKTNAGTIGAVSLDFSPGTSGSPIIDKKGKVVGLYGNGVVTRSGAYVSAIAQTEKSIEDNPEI
T1 sequence (P14340 1398-1437): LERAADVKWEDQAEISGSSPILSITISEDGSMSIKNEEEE

[3] = target: T2, dengue 2 protease (Dengue virus type 2, UniProt P14340); test: Dengue 2 protease inhibition, hydrolysis of Z-RR-MCA; format: biochemical, dengue 2 virus; parameters: Activity with inhibitors: unit not given here; settings: for Activity with inhibitors: 10 μM Z-RR-MCA, pH 9.0, 37° C., initial activity in UAF/min
T2 construct: The active site of the dengue protease is in the N-terminal part of NS3
T2 sequence (P14340 1476-1653): as the sequence (P14340 1476-1653) above
Method: The active site of the dengue protease is in the N-terminal part of NS3 which is also a serine protease with catalytic triad Asp79-His51-Ser135, but requires […] (CF40) for activity; the inhibition reported here was studied on a […] (CF40-GGGGSGGGG-NS3; (SEQ ID NO:54)) which has also been structurally characterized [Erbel et al., 2006; Luo et al. 2008].
Substrate was added in a concentration 10 times the Km, and the inhibitor compounds of type C (C16-KGnK-C16, C16-KAnK-C16, and C16-RAnR-C16) were added in increasing concentrations (1.0, 5.0, 10.0, 20.0, 40.0 μL) from a stock solution of 2 mg in 1 mL DMSO. The residual activity was measured in a Hitachi F2500 spectrofluorimeter, and plots were fitted using the Grafit® software (Erithracus Software, Horley, Surrey, UK). All the assays were calculated by the Morrison equation for competitive inhibition (eq. 1, [Morrison, 1969]). The amount of substrate used for the tight binding titration experiments follow all the requirements, where [S]<<Km for all enzymes, so the Kiapp=Ki.
Range of Proteases Inhibited by Geminoids, Determination of Ki with Z-RR-MCA (Dengue 2 Protease) and Ac-RVRR-MCA (Furin) (SEQ ID NO:60).

[4] = target: T2, dengue 2 protease; test: Dengue 2 protease inhibition in presence of Triton X-100 (detergent test, Nature Protocol); format: biochemical, dengue 2 virus; settings: 0.05% Triton X-100; for Activity with 0.05% Triton: initial activity in UAF/min
Text: A further investigation of the interactions of the geminoid inhibitors with biological membranes and with membrane-bound proteases is needed. […] The preparation and tests of peptides symmetrically, asymmetrically and singly alkylated with saturated, short (C6), and unsaturated (C18:1) alkyl tails are in progress.

Row | Compound | Replicon activity [μM] (1) [1] | IC50 [2] | inhibition at 50 µM [2] | % Inhibition at 50 μM (2) [2] | other results
1 | CCCCCCCCCCCCNC(=O)[C@H](CCCCN)NC(=O)[C@H](CCCCN)NC(=O)[C@H](CCCCN)NC(=O)[C@H](C)NC(=O)CCCCCCCCCCC [C12-AKKK-C12] (HELM PEPTIDE1{[CCCCCCCCCCCC(=O)[*:2]].A.K.K.K.[CCCCCCCCCCCCN[*:1]]}$$$$V2.0) | 0.1 µM | 300 nM | 98.5% | – | –
2 | CCCCCCCCCCCCNC(=O)[C@H](CCCCN)NC(=O)[C@H](CCCCN)NC(=O)[C@H](CCCCN)NC(=O)[C@H](CC(C)C)NC(=O)CCCCCCCCCCC [C12-LKKK-C12] (HELM PEPTIDE1{[CCCCCCCCCCCC(=O)[*:2]].L.K.K.K.[CCCCCCCCCCCCN[*:1]]}$$$$V2.0) | 0.1 µM | 300 nM | 102% | – | –
3 | CCCCCCCCCCCCCCCCNC(=O)[C@H](CCCCN)NC(=O)[C@H](CCC(N)=O)NC(=O)[C@H](CCCNC(=N)N)NC(=O)[C@H](C)NC(=O)CCCCCCCCCCCCCCC [C16-ARQK-C16] (HELM PEPTIDE1{[CCCCCCCCCCCCCCCC(=O)[*:2]].A.R.Q.K.[CCCCCCCCCCCCCCCCN[*:1]]}$$$$V2.0) | 5.0 µM | 300 nM | 95.7% | – | –
4 | CCCCCCCCCCCCCCCCNC(=O)[C@@H](CO)NC(=O)[C@@H](CCCCN)NC(=O)[C@@H](C)NC(=O)[C@@H](CCCCN)NC(=O)[C@@H](CC(C)C)NC(=O)CCCCCCCCCCCCCCC [C16-D-LKAKS-C16] (HELM PEPTIDE1{[CCCCCCCCCCCCCCCC(=O)[*:2]].[dL].[dK].[dA].[dK].[dS].[CCCCCCCCCCCCCCCCN[*:1]]}$$$$V2.0) | 3.0 µM | – | 97.4% | – | –
5 | CCCCCCCCCCCCCCCCNC(=O)[C@H](CCCCN)NC(=O)[C@H](CCCCN)NC(=O)[C@H](CCCCN)NC(=O)[C@H](Cc1ccccc1)NC(=O)CCCCCCCCCCCCCCC [C16-FKKK-C16] (HELM PEPTIDE1{[CCCCCCCCCCCCCCCC(=O)[*:2]].F.K.K.K.[CCCCCCCCCCCCCCCCN[*:1]]}$$$$V2.0) | 5.0 µM | 200 nM | 95.8% | – | –
6 | CCCCCCCCCCCCCCCCNC(=O)[C@H](CO)NC(=O)[C@H](CCCCN)NC(=O)[C@H](C)NC(=O)[C@H](CCCCN)NC(=O)[C@H](CC(C)C)NC(=O)CCCCCCCCCCCCCCC [C16-LKAKS-C16] (HELM PEPTIDE1{[CCCCCCCCCCCCCCCC(=O)[*:2]].L.K.A.K.S.[CCCCCCCCCCCCCCCCN[*:1]]}$$$$V2.0) | 3.0 µM | 300 nM | 108% | – | –
7 | CCCCCCCCCCCCCCCCNC(=O)[C@H](CCCCN)NC(=O)[C@H](CCC(N)=O)NC(=O)[C@H](C)NC(=O)[C@H](CCCNC(=N)N)NC(=O)CCCCCCCCCCCCCCC [C16-RAQK-C16] (HELM PEPTIDE1{[CCCCCCCCCCCCCCCC(=O)[*:2]].R.A.Q.K.[CCCCCCCCCCCCCCCCN[*:1]]}$$$$V2.0) | 10.0 µM | 600 nM | 102% | – | –
8 | CCCCCCCCCCCCCCCCNC(=O)[C@H](CCCNC(=N)N)NC(=O)[C@H](C)NC(=O)[C@H](C)NC(=O)[C@H](C)NC(=O)[C@H](CCCNC(=N)N)NC(=O)CCCCCCCCCCCCCCC [C16RA3RC16, n-C15H31C(O)-Arg-(Ala)3-Arg-(n-C16H33).2TFA] (HELM PEPTIDE1{[CCCCCCCCCCCCCCCC(=O)[*:2]].R.A.A.A.R.[CCCCCCCCCCCCCCCCN[*:1]]}$$$$V2.0) | – | – | – | – | Ki [3]: 1300 nM; Activity with inhibitors ([3]; 15 μM of inhibitor): 55; % recovery in presence of Triton ([4]; 15 μM of inhibitor): 50%; Activity with 0.05% Triton ([4]; 15 μM of inhibitor): 124
9 | CCCCCCCCCCCCCCCCNC(=O)[C@H](CCCNC(=N)N)NC(=O)[C@H](C)NC(=O)[C@H](CCCNC(=N)N)NC(=O)CCCCCCCCCCCCCCC [C16RARC16, n-C15H31C(O)-Arg-Ala-Arg-(n-C16H33).2TFA] | – | – | – | – | Ki [3]: 3100 nM; Activity with inhibitors ([3]; 5 μM of inhibitor): 27; % recovery in presence of Triton ([4]; 5 μM of inhibitor): 52%; Activity with 0.05% Triton ([4]; 5 μM of inhibitor): 105
10 | C16-AAQK-C16: geminoid in shorthand Cp-Zn-Cq, peptide SEQ ID NO: 78 | 5.0 µM | – | – | 26.8% | –
11 | C16-AKAK-C16: geminoid in shorthand Cp-Zn-Cq, peptide SEQ ID NO: 74 | 3.0 µM | – | – | 103.7% | –
12 | C16-AKAKG-C16: geminoid in shorthand Cp-Zn-Cq, peptide SEQ ID NO: 87 | 3.0 µM | – | – | 102.3% | –
13 | C16-D-AKAK-L-S-C16: geminoid in shorthand Cp-Zn-Cq, D-AKAK with L-S, SEQ ID NO: 89 (C16-[dA][dK][dA][dK]S-C16) | 3.0 µM | – | – | 108.0% | –
14 | C16-LKAKG-C16: geminoid in shorthand Cp-Zn-Cq, peptide SEQ ID NO: 88 | 3.0 µM | – | – | 98.4% | –
